Reference: ChEMBL document CHEMBL1212701, “Identification of small molecules rescuing fragile X syndrome phenotypes in Drosophila” (2008)
The source made the active and inactive calls. No cut-off for these calls is given here.

Experiments:
Drosophila [1] = test: Protection against fragile X syndrome phenotypes in Fmr1 null mutant Drosophila Fmr1'3/TM6C assessed as embryo viability at 40 uM at 25 degC by flow cytometry relative to untreated homozygous embryos; format: functional
Drosophila [2] = test: Protection against fragile X syndrome phenotypes in laboratory prepared food feeded Fmr1 null mutant Drosophila Fmr1'3/TM6C assessed as homozygous Fmr1-/- embryo viability at 5 uM at 25 degC by flow cytometry relative to untreated homozygous embryos fed with only laboratory prepared food; format: functional
Drosophila [3] = test: Protection against fragile X syndrome phenotypes in laboratory prepared food feeded Fmr1 null mutant Drosophila Fmr1'3/TM6C assessed as homozygous Fmr1-/- embryo viability at 10 uM at 25 degC by flow cytometry relative to untreated homozygous embryos fed with only laboratory prepared food; format: functional
Drosophila [4] = test: Suppression of Futsch protein overexpression in head lysates of laboratory prepared food feeded Fmr1 null mutant Drosophila Fmr1'3/TM6C fragile X syndrome model at 40 uM by Western blot; format: functional, organism-based
Drosophila [5] = test: Suppression of Futsch protein overexpression in head lysates of laboratory prepared food feeded Fmr1 null mutant Drosophila Fmr1'3/TM6C fragile X syndrome model at 40 uM in presence of Scopolamine by Western blot; format: functional, organism-based
Drosophila [6] = test: Suppression of beta-lobe midline crossing deffect in mushroom bodies of laboratory prepared food feeded Fmr1 null mutant Drosophila Fmr1'3/TM6C fragile X syndrome model at by Fas2 staining based confocal microscopy; format: functional
Drosophila [7] = test: Cytoprotection against glutamate-induced toxicity in laboratory prepared food feeded Fmr1 null mutant Drosophila Fmr1'3/TM6C fragile X syndrome model assessed as genetic segregation ratio at 40 uM by flow cytometry relative to untreated embryos; format: functional
Drosophila [8] = test: Suppression of glutamate-induced beta-lobe midline crossing deffect in mushroom bodies of laboratory prepared food feeded Fmr1 null mutant Drosophila Fmr1'3/TM6C fragile X syndrome model assessed as incidence of severe deffects at 40 uM by Fas2 staining based confocal microscopy; format: functional
Drosophila [9] = test: Protection against fragile X syndrome phenotypes in laboratory prepared food feeded Fmr1 null mutant Drosophila Fmr1'3/TM6C assessed as homozygous Fmr1-/- embryo viability at 40 uM at 25 degC by flow cytometry relative to untreated homozygous embryos fed with only laboratory prepared food; format: functional
Drosophila [10] = test: Cytoprotection against glutamate-induced toxicity in laboratory prepared food feeded Fmr1 null mutant Drosophila Fmr1'3/TM6C fragile X syndrome model assessed as embryo viability at 40 uM in presence of GABAB receptor antagonist CGP-54626 by flow cytometry relative to untreated embryos; format: functional
Drosophila [11] = test: Suppression of glutamate-induced courtship behavior deffect in laboratory prepared food feeded male Fmr1 null mutant Drosophila Fmr1'3/TM6C fragile X syndrome model assessed as courtship behavior towards female flies at 40 uM for 10 mins by courtship index assay; format: functional, organism-based
Drosophila [12] = test: Suppression of glutamate-induced Futsch protein overexpression in head lysates of laboratory prepared food feeded Fmr1 null mutant Drosophila Fmr1'3/TM6C fragile X syndrome model at 40 uM by Western blot; format: functional, organism-based
Drosophila [13] = test: Suppression of glutamate-induced beta-lobe midline crossing deffect in mushroom bodies of laboratory prepared food feeded Fmr1 null mutant Drosophila Fmr1'3/TM6C fragile X syndrome model at 40 uM by Fas2 staining based confocal microscopy; format: functional
Drosophila [14] = test: Cytoprotection against glutamate-induced toxicity in laboratory prepared food feeded Fmr1 null mutant Drosophila Fmr1'3/TM6C fragile X syndrome model assessed as embryo viability at 40 uM by flow cytometry relative to untreated embryos; format: functional, organism-based
Drosophila [15] = test: Cytoprotection against glutamate-induced toxicity in laboratory prepared food feeded Fmr1 null mutant Drosophila Fmr1'3/TM6C fragile X syndrome model assessed as embryo viability at 80 uM by flow cytometry relative to untreated embryos; format: functional, organism-based
Drosophila [16] = test: Suppression of glutamate-induced courtship behavior deffect in laboratory prepared food feeded male Fmr1 null mutant Drosophila Fmr1'3/TM6C fragile X syndrome model assessed as courtship behavior towards female flies at 80 uM for 10 mins by courtship index assay; format: functional, organism-based
Drosophila [17] = test: Suppression of glutamate-induced beta-lobe midline crossing deffect in mushroom bodies of laboratory prepared food feeded Fmr1 null mutant Drosophila Fmr1'3/TM6C fragile X syndrome model at 80 uM by Fas2 staining based confocal microscopy; format: functional, organism-based
Drosophila [18] = test: Protection against fragile X syndrome phenotypes in laboratory prepared food feeded Fmr1 null mutant Drosophila Fmr1'3/TM6C assessed as homozygous Fmr1-/- embryo viability at 20 uM at 25 degC by flow cytometry relative to untreated homozygous embryos fed with only laboratory prepared food; format: functional
Drosophila [19] = test: Cytoprotection against glutamate-induced toxicity in laboratory prepared food feeded Fmr1 null mutant Drosophila Fmr1'3/TM6C fragile X syndrome model assessed as embryo viability at 40 uM in presence of 40 uM GABAB receptor antagonist CGP-54626 by flow cytometry relative to untreated embryos; format: functional, organism-based

CCN(CC)CCOc1ccc(C(=C(Cl)c2ccccc2)c2ccccc2)cc1 [CLOMIPHENE]
Activity (Drosophila [1]): 25%
Activity (Drosophila [2]): 54.96%

O=c1cc(CO)occ1O [KOJIC ACID]
Activity (Drosophila [3]): 73.06%
Activity (Drosophila [1]): 25%

CC[C@@H]1C(=O)OC[C@@H]1Cc1cncn1C.O=[N+]([O-])O [PILOCARPINE NITRATE]
Activity (Drosophila [4]): Active
Activity (Drosophila [5]): inactive
Activity (Drosophila [1]): 33%
Activity (Drosophila [6]): 69%
Activity (Drosophila [2]): 68.5%

Cc1cc(O)cc(C)c1Cl [CHLOROXYLENOL]
Activity (Drosophila [1]): 42%

Cl.NCCc1ccc(O)c(O)c1 [DOPAMINE HYDROCHLORIDE]
Activity (Drosophila [1]): 25%

NCCCC(=O)O [GAMMA-AMINOBUTYRIC ACID]
Activity (Drosophila [7]): 33%
Activity (Drosophila [8]): 7%
Activity (Drosophila [9]): 83.1%
Activity (Drosophila [10]): 8%
Activity (Drosophila [11]): Active
Activity (Drosophila [12]): Active
Activity (Drosophila [1]): 25%
Activity (Drosophila [13]): 70%
Activity (Drosophila [14]): Active

O=C(O)C1CCCNC1 (stereo not given) [NIPECOTIC ACID]
Activity (Drosophila [9]): 84.2%
Activity (Drosophila [4]): Active
Activity (Drosophila [1]): 58%
Activity (Drosophila [6]): 69%

CN1CC(=O)NC1=N [CREATININE]
Activity (Drosophila [9]): 123.2%
Activity (Drosophila [4]): Active
Activity (Drosophila [1]): 58%
Activity (Drosophila [6]): 69%

Cc1cccc(C#Cc2ccccc2)n1
Activity (Drosophila [15]): Active
Activity (Drosophila [3]): 61.6%
Activity (Drosophila [16]): Active
Activity (Drosophila [17]): Active

C[C@H](NC[C@H](O)CP(=O)(O)CC1CCCCC1)c1ccc(Cl)c(Cl)c1
Activity (Drosophila [14]): inactive

C/C=C(/C(=C/C)c1ccc(O)cc1)c1ccc(O)cc1 [DIENESTROL]
Activity (Drosophila [9]): 71.3%
Activity (Drosophila [1]): 33%

Cl.NCC(=O)c1ccccc1 [PHENACYLAMINE HYDROCHLORIDE]
Activity (Drosophila [1]): 25%

COC(=O)[C@H]1[C@H]2C[C@@H]3c4[nH]c5cc(OC)ccc5c4CCN3C[C@H]2C[C@@H](OC(=O)c2cc(OC)c(OC)c(OC)c2)[C@@H]1OC [RESERPINE]
Activity (Drosophila [1]): 25%

C[C@@H](CO)NC(=O)[C@@H]1C=C2c3cccc4[nH]cc(c34)C[C@H]2N(C)C1.O=C(O)/C=C\C(=O)O [ERGONOVINE MALEATE]
Activity (Drosophila [18]): 69.85%
Activity (Drosophila [1]): 33%

CN1[C@@H]2CC[C@H]1C[C@@H](OC(c1ccccc1)c1ccccc1N)C2 (stereo not given in full) [AMINOBENZTROPINE]
Activity (Drosophila [9]): 66.38%
Activity (Drosophila [4]): Active
Activity (Drosophila [1]): 25%
Activity (Drosophila [19]): Active

CC(=O)N[C@@H](CS)C(=O)O [ACETYLCYSTEINE]
Activity (Drosophila [1]): 67%

Cl.Cl.NNCc1cccc(O)c1
Activity (Drosophila [1]): 67%
